Data on three compounds can be found in patent US12084418B2, “Small molecule inhibitors of G(alpha)i2 protein and uses thereof” (Clark Atlanta University, Inc., priority 2020, dated 2024).

For data set [1], the system named is PC3 cells. Description: Transwell migration assay in PC3 cells. It counts as cell-based, human. On the procedure: (§1) Human prostate cancer cell lines (DU145 and PC3) were obtained from American Type Culture Collection (ATCC) (Rockville, MD). DU145 and PC3 are androgen independent cell lines, derived from brain and bone metastatic sites, respectively. They were maintained in Minimum Essential Medium, supplemented with 5% FBS, in a 5% CO2 environment at 37° C. E006AA cells are derived from localized prostate cancer in a patient. These cells were maintained in Dulbecco's Modified Eagle Medium, supplemented with 5% FBS, in a 5% CO2 environment at 37° C.
For biological assays, the compounds were dissolved in DMSO at a starting concentration of 0.05 mM (compound 12) and 0.1 mM (compounds 9a-b, 13 and 14) and then diluted in culture media to the final concentrations used for the assays.
(§2) In vitro cell migration and invasion assays were conducted using 24-well transwell inserts (8 μm). The transwell inserts were coated with […] of rat tail collagen for migration assays, and with 50 μl of a 1:4 Matrigel/Coating buffer solution for invasion assays. Cells were suspended at the appropriate density in appropriate media and treated with the inhibitors, at specific concentrations. For migration assays, EGF was used as a chemoattractant (10 ng/ml) for PC3, DU145, E006AA and SKOV3 cells; 10% FBS was used for MCF7 cells. The plates were incubated at 37° C. for 5 hours (DU145, PC3 and SKOV3), 24 hours (E006AA) or 48 hours (MCF7) for migration assays, and 48 hours for invasion assays. After fixation, the cells were stained with 3 ng/ml of DAPI and images of five non-overlapping fields were captured using Axiovert 200M, Carl Zeiss (Thornwood, NY) microscope. The number of stained nuclei were determined with automatic counting using image analysis software (ZEN 2012; Carl Zeiss). Results were expressed as migration or invasion index defined as: the average number of cells per field for test substance/the average number of cells per field for the medium control.

The subject of data set [2] is PC3 cells. The experiment in a line: Cell viability assay (MTS). It counts as cell-based, human. The note with it: compound 10 μM, 24 hours. On the procedure:
FIG. 3C is a graph depicting a viability study of PC3 cells treated for 24 hours with inhibitor compounds 9b, 13 and 14, at 10 μM. MTS assays were conducted for 4 hours and the results were expressed as % of viable treated cells against the control cells. Each bar represents mean±SEM (n=3).
Cell viability assays were performed using CellTiter 96® AQueous One Solution Cell Proliferation Assay (MTS) from Promega, according to the manufacture's protocol. Briefly, 5.0×10^4 cells/well were plated in a 96 well plates and incubated in a 5% CO2 environment at 37° C. overnight. After 24 hours the medium was replaced with fresh medium, containing several compounds at the appropriate concentrations. Diluted DMSO was used as a control. MTS assays were performed after 24 hours and the absorbance read at 490 nm, using a spectrophotometer.

Data set [3] concerns PC3 cells. The experiment in a line: Transwell migration assay in PC3 cells. The format is cell-based, human. As to conditions: absence of EGF stimulus.
Data set [4] relates to PC3 cells. The experiment in a line: Cell viability assay (MTS). It counts as cell-based, human. As to conditions: 24 hours.
Data set [5] relates to DU145 cells. The experiment in a line: Transwell migration assay in DU145 cells. The format is cell-based, human. The note with it: compound 10 μM. Here is the method:
as §1
as §2, with “The plates were incubated at 37° C. for 5 hours (DU145, PC3 and SKOV3), 24 hours (E006AA) or 48 hours (MCF7) for migration assays, and 48 hours for invasion assays. After fixation, the cells were stained with 3 ng/ml of DAPI and images of five non-overlapping fields were captured using Axiovert 200M, Carl Zeiss (Thornwood, NY) microscope.” left out

Data set [6] relates to E006AA cells. Description: Transwell migration assay in E006AA cells. It counts as cell-based, human. The note with it: compound 10 μM. On the procedure:
as §1
as §2, with “The plates were incubated at 37° C. for 5 hours (DU145, PC3 and SKOV3), 24 hours (E006AA) or 48 hours (MCF7) for migration assays, and 48 hours for invasion assays. After fixation, the cells were stained with 3 ng/ml of DAPI and images of five non-overlapping fields were captured using Axiovert 200M, Carl Zeiss (Thornwood, NY) microscope.” left out

In data set [7] the target is T1, Gαi2 (Homo sapiens, UniProt P04899).
T1 construct: endogenous in cells; host or cells: PC3 cells
Description: Immunoprecipitation of active Gαi and Western blot with anti-Gαi2 antibody in PC3 cells. It counts as cell-based. As to conditions: for activation of Gαi2 (conversion from GDP- to GTP-state): stimulus not given. On the procedure: PC3 cells (3×10^6 cell/dish) were incubated with or without inhibitor compound 14 (10 μM) for 30 minutes and then treated with EGF (10 ng/ml) or oxytocin (200 nmol/L) for additional 30 minutes. Cells were lysed in ice-cold cell lysis buffer (Cell Signaling Technology) and snap-frozen in liquid nitrogen. Total cell lysates, containing approximately 1000 μg of proteins, were used for immunoprecipitation. The lysates were incubated with 1 μg of anti-active Gαi antibody, overnight at 4° C. Immunocomplexes were collected by centrifugation after incubation with protein A/G-Sepharose beads for 48 h (Santa Cruz Biotechnology) and were analyzed by Western blot analysis with specific anti-Gαi2 antibody (Abcam).
Western blot analyses were performed. Briefly, protein samples (30-35 μg proteins) were separated on 10% SDS-PAGE gels and transferred to polyvinylidene difluoride (PVDF) membranes (Millipore Corp., Bedford, Massachusetts). After blocking, the membranes were incubated with several primary antibodies, at appropriate dilutions (1:500 for Giα2; 1:3000 for α-tubulin) overnight at 4° C. After washing, the blots were incubated with appropriate secondary antibodies and developed in ECL mixture, using Syngene PXi Imaging System, according to the manufacture's manual. α-tubulin was used as loading control.
A general note: In western blotting, separated proteins are transferred to a membrane and probed.

Data set [8] deals with PC3 cells. The experiment in a line: Transwell (Matrigel) invasion assay in PC3 cells. It counts as cell-based, human. As to conditions: compound 10 μM, 48 hours. On the procedure:
as §2

Data set [9] relates to DU145-Gαi2-Q205L cells. Description: Transwell migration assay in DU145 cells overexpressing constitutively active Gαi2 (Gαi2-Q205L). It counts as cell-based, human. On the procedure: DU145 cells were seeded in 6-well plates at a density of 2.0×10^5 cells per well and transfected with pcDNA3.1-EV and pcDNA3.1-Gαi2-Q205L, using ViaFect™ transfection reagent, according to the manufacturer's protocol. Briefly, media with no antibiotics (200 μl/well) containing 2 μg of plasmids DNA were mixed with the transfection reagent (6 μl/well) and, after 20 minutes, the mixtures were added drop by drop on the cells and the cells were cultured for 48 hours. Then the cells were harvested and used for several assays.
as §2

Data set [10] relates to MCF7 cells. Description: Transwell migration assay in MCF7 cells. It counts as cell-based, human. The note with it: compound 10 μM, 10% FBS, 48 hours. On the procedure:
(§3) Human breast adenocarcinoma cell line MCF7 and human ovarian adenocarcinoma cell line SKOV3 were obtained from American Type Culture Collection (ATCC) (Rockville, MD) and maintained in Dulbecco's Modified Eagle Medium, supplemented with 5% FBS, in a 5% CO2 environment at 37° C.
as §2, with “After fixation, the cells were stained with 3 ng/ml of DAPI and images of five non-overlapping fields were captured using Axiovert 200M, Carl Zeiss (Thornwood, NY) microscope.” left out

For data set [11], the system named is SKOV3 cells. The experiment in a line: Transwell migration assay in SKOV3 cells. The format is cell-based, human. As to conditions: compound 10 μM, EGF 10 ng/ml, 5 hours. Here is the method: as §3
as §2, with “After fixation, the cells were stained with 3 ng/ml of DAPI and images of five non-overlapping fields were captured using Axiovert 200M, Carl Zeiss (Thornwood, NY) microscope.” left out

The mark [12] stands for this setting: compound 10 μM, EGF 10 ng/ml, 5 hours.
[13] abbreviates: compound 50 μM, in presence of EGF.
The mark [14] stands for this setting: compound 100 μM, in presence of EGF.

The structures appear in SMILES notation. “Also recorded” adds a separate entry of the source.

T1 sequence (P04899 whole entry): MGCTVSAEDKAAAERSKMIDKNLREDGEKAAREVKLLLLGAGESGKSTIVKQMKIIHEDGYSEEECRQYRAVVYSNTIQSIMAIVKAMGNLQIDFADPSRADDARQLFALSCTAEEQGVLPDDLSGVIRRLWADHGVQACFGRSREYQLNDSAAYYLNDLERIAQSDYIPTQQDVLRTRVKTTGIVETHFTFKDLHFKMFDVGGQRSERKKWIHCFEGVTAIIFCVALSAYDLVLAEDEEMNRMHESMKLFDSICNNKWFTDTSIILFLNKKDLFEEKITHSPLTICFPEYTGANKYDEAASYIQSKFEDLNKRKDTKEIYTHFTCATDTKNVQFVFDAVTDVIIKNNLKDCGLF

As to `C/C(=N\c1ccc(O)cc1)c1sc2ccccc2c1O` [Compound 12, (E)-2-(1-((4-hydroxyphenyl)imino)ethyl)benzo[b]thiophen-3-ol, reference compound], the “migratory capability of PC3 cells (migration index)” value is given as “had no effect on the migration” in [1] (setting [12]); “caused a reduction in the migratory capability” in data set [1] (setting [13]); “caused a reduction in the migratory capability” in [1] (setting [14]); “caused a reduction in the migratory capability” in data set [3] (compound 50 μM); “caused a reduction in the migratory capability” in data set [3] (compound 100 μM). Also, the cell viability entry in data set [2] is “had no effect on cell viability”; in data set [4] (compound 50 μM), “cytotoxic”; in data set [4] (compound 100 μM), “cytotoxic”.
For the compound `C/C(=N\c1ccc(O)cc1)c1cc2ccccc2s1` [Compound 13, (E)-4-((1-(benzo[b]thiophen-2-yl)ethylidene)amino)phenol], the “migratory capability of PC3 cells (migration index)” value was “significantly decreased EGF-induced migratory capability; also recorded: significantly reduced the migratory capability” in [1] (setting [12]), “reduced the migratory capability” in [1] (setting [13]) and “reduced the migratory capability” in data set [1] (setting [14]). Moreover, the figures for the cell viability result in data set [2], in data set [4] (compound 50 μM) and in data set [4] (compound 100 μM) were “had no effect on cell viability; also recorded: did not affect cell viability”, “cytotoxic” and “cytotoxic”, respectively. In [5], the “EGF-induced migration of DU145 cells” value is “reduced the EGF-induced migration”. For the same compound, in [6], the “EGF-induced migration of E006AA cells” value is recorded as “reduced the EGF-induced migration”. The “activation of Gαi2 (conversion from GDP- to GTP-state)” value in data set [7] is listed as “impaired activation of Gαi2”.
With `C/C(=N\c1ccc(O)cc1)c1cc2ccccc2n1C` [Compound 14, (E)-4-((1-(1-methyl-1H-indol-2-yl)ethylidene)amino)phenol], the “migratory capability of PC3 cells (migration index)” value in data set [1] (setting [12]) is on record as “significantly decreased EGF-induced migratory capability; also recorded: significantly reduced the migratory capability”; in data set [1] (setting [13]), “reduced the migratory capability”; in [1] (setting [14]) it was “reduced the migratory capability”. Moreover, the entries for the “invasive capability of PC3 cells (invasion index)” value in [8] (in response to EGF 10 ng/ml) and in data set [8] (in response to FBS (5%)) were “significantly reduced; also recorded: inhibited” and “significantly reduced”, respectively. Moreover, the results for the cell viability entry in data set [2], in [4] (compound 50 μM) and in data set [4] (compound 100 μM) were “had no effect on cell viability; also recorded: did not affect cell viability”, “cytotoxic” and “cytotoxic”, respectively. Besides, in data set [5], the “EGF-induced migration of DU145 cells” value is listed as “reduced the EGF-induced migration”. Also, in data set [6], the “EGF-induced migration of E006AA cells” value is “reduced the EGF-induced migration”. Besides, the “levels of active Gαi2 after stimulation with OXT” value in [7] (PC3 cells, OXT 200 nmol/L 30 minutes, compound 14 at 10 μM) is reported as “the levels of active Gαi2 were reduced”. Further, the “activation of Gαi2 (conversion from GDP- to GTP-state)” value in data set [7] is listed as “reduced activation of Gαi2; also recorded: impaired activation of Gαi2”. The “EGF-stimulated cell migration of DU145-Gαi2-Q205L cells” value in data set [9] (compound 10 μM, EGF 10 ng/ml) is on record as “attenuation”. In addition, the “basal cell migration of DU145-Gαi2-Q205L cells” value in data set [9] (compound 10 μM, basal) is given as “attenuation”. In addition, in [9] (stimulus and concentration not stated at the place (FIG. 5B)), the “migration of DU145-Gαi2-Q205L cells” value was “significantly reduced migration”. Also, the “migration of MCF7 cells” value in data set [10] is on record as “impaired the migratory capability; also recorded: significantly reduced migration”. The “migration of SKOV3 cells” value in data set [11] is recorded as “impaired the migratory capability; also recorded: significantly reduced migration”.
